Reference: ChEMBL document CHEMBL3861944 (Medchemcomm, 2016)

Assay: Antioxidant activity assessed as DPPH free radical scavenging activity incubated for 30 mins in dark
Type: functional

SMILES: O=C1O[C@H]([C@@H](O)CO)C(O)=C1O [ASCORBIC ACID]
- IC50: 79.3 µM
